Results: patent US6977254B2, “Hydroxy cyclohexenyl phenyl carboxamides tocolytic oxytocin receptor antagonists” (Wyeth, priority 2001, dated 2005)

Biological target: T1, human oxytocin receptor (Homo sapiens, UniProt P30559)
T1 construct: host or cells: CHO cells, stably transfected (pcDNA3.1 vector); membranes
T1 sequence (P30559 1-389): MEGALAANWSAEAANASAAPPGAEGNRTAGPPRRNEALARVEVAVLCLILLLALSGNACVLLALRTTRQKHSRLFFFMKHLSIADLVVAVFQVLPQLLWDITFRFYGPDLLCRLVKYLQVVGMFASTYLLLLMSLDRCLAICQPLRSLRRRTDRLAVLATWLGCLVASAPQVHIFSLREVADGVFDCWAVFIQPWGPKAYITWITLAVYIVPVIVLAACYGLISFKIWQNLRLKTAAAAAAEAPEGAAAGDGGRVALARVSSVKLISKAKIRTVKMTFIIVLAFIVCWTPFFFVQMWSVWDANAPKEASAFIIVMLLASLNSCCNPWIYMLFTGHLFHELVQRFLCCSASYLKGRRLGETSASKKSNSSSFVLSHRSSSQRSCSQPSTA
Test: Oxytocin binding in CHO cell membranes expressing human oxytocin receptors ([3H]oxytocin radioligand)
Conditions: for IC50: value in parentheses, read-out: OT (IC50); for inhibition at 0.1 µM / OT % inhibition @ 100 nM: 100 nM, value without parentheses; for inhibition at 0.1 µM: read-out: OT % inhibition @ 100 nM
From the text: Oxytocin binding in Chinese Hamster Ovary cell membranes expressing human oxytocin receptors
Chinese Hamster Ovary (CHO) cells stably transfected with the human oxytocin (cf. T. Kimura et al., U.S. Pat. No. 5,466,584 (1995) to Rohto Pharmaceutical Co. Ltd., Osaka, Japan) were obtained from Dr. M. Thibonnier, Case Western Reserve University School of Medicine, Cleveland, Ohio.
A. Passaging and Amplification of Cells:
CHO cells transfected with the human oxytocin receptors obtained from M. Thibonnier (pcDNA3.1 vector) are allowed to grow to confluency (approx. >90%) in T-150 flasks under sterile conditions, in a cell culture medium of F-12 Nutrient Mixture (HAM) with L-glutamine (Gibco Cat. #11765-054) containing 15 mM HEPES (Gibco Cat. #15630-080), 1% antibiotic/antimycotic (add 5 mL 100×, Gibco Cat. #15240-062 per 500 mL F-12), 400 μg/mL of Geneticin (add 4 mL of 50 mg/mL per 500 mL F-12) and 10% Fetal Bovine Serum (Qualified, heat inactivated, Gibco Cat. #16140-063). The medium is removed by aspiration and the cells are washed with 10 mL of Hank's Balanced Salt solution (Gibco Cat. #14175-095). The salt solution is removed by aspiration and the cells trypsinized with 5 mL of trypsin-EDTA (0.05% trypsin, 0.53 mM EDTA-4Na, Gibco Cat. #25300-070) for 1 min The trypsin is removed by aspiration and the cells dislodged by tapping. Cell Culture medium (e.g. 30 mL for 1:30 split) is immediately added and mixed well to inactivate trypsin. 1 mL of detached cells is added to new culture flasks containing fresh Cell Culture medium (e.g. into 25 mL per T-150 flask), and mixed gently. The cells are incubated at 37° C. in 5% CO2. The medium is changed at 3 to 4 days interval (or as appropriate). The cells grow to confluency (approx. >75%-95%) within 7-8 days. All steps are done under sterile conditions.
The cells are washed twice gently with Hank's Balanced Salt solution (eg, use 10 mL per T-150 flask). The excess is removed and the cells bathed for 15-30 min. in an enzyme-free Cell Dissociation Buffer (eg, use 8 mL Hank's Based, Gibco Cat. #13150-016 per T-150 flask) until cells are loosened. The contents are transferred to centrifuge tubes (50 mL size) kept in ice bath. All subsequent steps are done at 4° C. The tubes are centrifuged at 300×g for 15 min (1380 rpm on SORVAL, Model RT6000D, using rotor for 50 mL tubes). The supernatant is discarded and the cells suspended in homogenizing buffer (10 mM Tris-HCl containing 0.25 M sucrose and 1 mM EDTA, pH 7.4) ensuring that the volume of the buffer is about ten times the volume of the cell pellet. The cells are pooled into a centrifuge tube (50 mL) and homogenized with Polytron at setting 6 for 10 sec. The homogenate is transferred into a Potter-Elvjehm homogenizer and homogenized with 3 strokes. The homogenate is centrifuged at 1500×g for 10 min at 4° C. (3100 rpm using SORVAL, model RT6000D, using rotor for 50 mL tubes). The pellet is discarded. The supernatant is centrifuged at 100,000×g for 60 min. at 4° C. (Beckman L8-80M ultracentrifuge; spin at 37,500 rpm with rotor type 70 Ti for 50 mL tubes; 38,000 rpm with type 80Ti for 15 mL tubes; or 35,800 rpm with rotor type 45Ti). The supernantant is discarded and the pellet suspended in 3 to 4 mL of Tris buffer (50 mM TRIS-HCl, pH 7.4). The protein content is estimated by the Bradford or Lowry method. The volume of the membrane suspension is adjusted with the membrane buffer (50 mM Tris-HCl containing 0.1% BSA and 0.1 mM PMSF) to give 3.0 mg/mL (or as appropriate) of protein. The membranes are aliquoted and stored at −70° C.
C. Radioligand Binding Assay:
In wells of a 96-well format microtiter plate, is added 90, 110 or 130 μL (to make up a final volume of 200 μL) of assay buffer containing 50 mM of Tris-HCl (pH 7.4), […], 1 mg % aprotinin, 1 mg % leupeptin, 2 mg % 1,10-phenanthroline, 10 mg % trypsin inhibitor, and 0.1 mM PMSF. The inhibitors are added on the day of the experiment. […]

Compound	IC50 [nM]	inhibition at 0.1 µM [%]	also measured
COc1cc(C2=CCCCC2)c(Cl)cc1C(=O)N1Cc2ccc(C(=O)N(C)C[C@H](O)[C@@H](O)[C@H](O)[C@H](O)CO)n2Cc2ccccc21 [Example 1, 1-[[[10-[5-Chloro-4-(1-cyclohex-1-en-1-yl)-2-methoxybenzoyl]-10,11-dihydro-5H-pyrrolo[2,1-c][1,4]benzodiazepin-3-yl]carbonyl]methylamino]-1-deoxy-D-glucitol]	0.98		
COc1cc(C2=CCCCC2)c(Cl)cc1C(=O)N1Cc2ccc(C(=O)O)n2Cc2ccccc21 [Example 1G, 10-(5-Chloro-4-cyclohex-1-en-1-yl-2-methoxybenzoyl)-10,11-dihydro-5H-pyrrolo[2,1-c][1,4]benzodiazepine-3-carboxylic acid]		21	
COC[C@@H](OC)[C@@H](OC)[C@H](OC)[C@H](CN(C)C(=O)c1ccc2n1Cc1ccccc1N(C(=O)c1cc(Cl)c(C3=CCCCC3)cc1OC)C2)OC [Example 2, 10-(5-Chloro-4-cyclohex-1-en-1-yl-2-methoxybenzoyl)-N-methyl-N-[(2S,3R,4R,5R)-2,3,4,5,6-pentamethoxyhexyl]-10,11-dihydro-5H-pyrrolo[2,1-c][1,4]benzodiazepine-3-carboxamide]	19.6		
COc1cc(C2=CCCCC2)c(Cl)cc1C(=O)N1Cc2ccc(C(=O)N(C)C[C@@H]3OC(=O)O[C@H]3[C@H](O)[C@H]3COC(=O)O3)n2Cc2ccccc21 [Example 3, 10-(5-Chloro-4-cyclohex-1-en-1-yl-2-methoxybenzoyl)-N-[((4S,5S)-5-{(R)-hydroxy[(4R)-2-oxo-1,3-dioxolan-4-yl]methyl}-2-oxo-1,3-dioxolan-4-yl)methyl]-N-methyl-10,11-dihydro-5H-pyrrolo[2,1-c][1,4]benzodiazepine-3-carboxamide]	4.92		
COc1cc(C2=CCCCC2)c(Cl)cc1C(=O)N1Cc2ccc(C(=O)N(C)CC(O)CO)n2Cc2ccccc21 (stereo not shown) [Example 4, 10-(5-Chloro-4-cyclohex-1-en-1-yl-2-methoxybenzoyl)-N-(2,3-dihydroxypropyl)-N-methyl-10,11-dihydro-5H-pyrrolo[2,1-c][1,4]benzodiazepine-3-carboxamide]	2.07		
Cc1cc(C(=O)N2Cc3ccc(C(=O)C(Cl)(Cl)Cl)n3Cc3ccccc32)ccc1C1=CCCCC1 [Example 5D, 2,2,2-Trichloro-1-[10-(4-cyclohex-1-en-1-yl-3-methyl-benzoyl)-10,11-dihydro-5H-pyrrolo[2,1-c][1,4]benzodiazepin-3-yl]-methanone]			OT % inhibition @ 100 nM: 10%
Cc1cc(C(=O)N2Cc3ccc(C(=O)O)n3Cc3ccccc32)ccc1C1=CCCCC1 [Example 5E, 10-(4-Cyclohex-1-en-1-yl-3-methyl-benzoyl)-10,11-dihydro-5H-pyrrolo[2,1-c][1,4]benzodiazepine-3-carboxylic acid]		26	
Cc1cc(C(=O)N2Cc3ccc(C(=O)N(C)C[C@H](O)[C@@H](O)[C@H](O)[C@H](O)CO)n3Cc3ccccc32)ccc1C1=CCCCC1 [Example 5]	2.15		
Cc1cc(C(=O)N2Cc3ccc(C(=O)N(C)C[C@H](O)[C@H]4OC(=O)O[C@@H]4[C@H](O)CO)n3Cc3ccccc32)ccc1C1=CCCCC1 [Example 6, 10-(4-Cyclohex-1-en-1-yl-3-methylbenzoyl)-N-((2S)-2-{(4R,5R)-5-[(1R)-1,2-dihydroxyethyl]-2-oxo-1,3-dioxolan-4-yl}-2-hydroxyethyl)-N-methyl-10,11-dihydro-5H-pyrrolo[2,1-c][1,4]benzodiazepine-3-carboxamide]	0.96		
Cc1cc(C(=O)N2Cc3ccc(C(=O)N(C)C[C@@H]4OC(=O)O[C@H]4[C@H](O)[C@H]4COC(=O)O4)n3Cc3ccccc32)ccc1C1=CCCCC1 [Example 7, 10-(4-Cyclohex-1-en-1-yl-3-methylbenzoyl)-N-[((4S,5S)-5-{(R)-hydroxy[(4R)-2-oxo-1,3-dioxolan-4-yl]methyl}-2-oxo-1,3-dioxolan-4-yl)methyl]-N-methyl-10,11-dihydro-5H-pyrrolo[2,1-c][1,4]benzodiazepine-3-carboxamide]		99	
COC[C@@H](OC)[C@@H](OC)[C@H](OC)[C@H](CN(C)C(=O)c1ccc2n1Cc1ccccc1N(C(=O)c1ccc(C3=CCCCC3)c(C)c1)C2)OC [Example 8, 10-(4-Cyclohex-1-en-1-yl-3-methylbenzoyl)-N-methyl-N-[(2S,3R,4R,5R)-2,3,4,5,6-pentamethoxyhexyl]-10,11-dihydro-5H-pyrrolo[2,1-c][1,4]benzodiazepine-3-carboxamide]	13		
CCOC(=O)[C@H](Cc1ccc(O)cc1)NC(=O)c1ccc2n1Cc1ccccc1N(C(=O)c1ccc(C3=CCCCC3)c(C)c1)C2 [Example 9, (2S)-2-{[10-(4-Cyclohex-1-en-1-yl-3-methyl-benzoyl)-10,11-dihydro-5H-pyrrolo[2,1-c][1,4]benzodiazepine-3-carbonyl]-amino}-3-(4-hydroxy-phenyl)-propionic acid ethyl ester]		23	
Cc1cc(C(=O)N2Cc3ccc(C(=O)N[C@@H](Cc4ccc(O)cc4)C(=O)O)n3Cc3ccccc32)ccc1C1=CCCCC1 [Example 10]			OT % inhibition @ 100 nM: 54%
COC(=O)[C@H](CO)NC(=O)c1ccc2n1Cc1ccccc1N(C(=O)c1ccc(C3=CCCCC3)c(C)c1)C2 [Example 11, (2S)-2-{[10-(4-Cyclohex-1-en-1-yl-3-methyl-benzoyl)-10,11-dihydro-5H-pyrrolo[2,1-c][1,4]benzodiazepine-3-carbonyl]-amino}-3-hydroxy-propionic acid methyl ester]	76.2		
COC(=O)[C@@H](CO)NC(=O)c1ccc2n1Cc1ccccc1N(C(=O)c1ccc(C3=CCCCC3)c(C)c1)C2 [Example 12, (2R)-2-{[10-(4-Cyclohex-1-en-1-yl-3-methyl-benzoyl)-10,11-dihydro-5H-pyrrolo[2,1-c][1,4]benzodiazepine-3-carbonyl]-amino}-3-hydroxy-propionic acid methyl ester]	47.1		
Cc1cc(C(=O)N2Cc3ccc(C(=O)N[C@@H](CO)C(=O)O)n3Cc3ccccc32)ccc1C1=CCCCC1 [Example 13, (2S)-2-{[10-(4-Cyclohex-1-en-1-yl-3-methyl-benzoyl)-10,11-dihydro-5H-pyrrolo[2,1-c][1,4]benzodiazepine-3-carbonyl]-amino}-3-hydroxy-propionic acid]		63	
